Test results reported in ChEMBL document CHEMBL1158135, “Sulfated alkenes from the echinus Temnopleurus hardwickii” (J Nat Prod, 2006).

Test system: P388
Experiment: Cytotoxicity against mouse P388 cells after 72 hrs by MTT assay
Format: functional, cell-based
Conditions: P388, 72 h

CC(=O)CC(C)(C)N.CC(C)=CCC[C@@H](C)/C=C/CCOS(=O)(=O)O
IC50: 290 µM
